Reference: US6953677B2, “Recombinant L-N-carbamoylase from Arthrobacter aurescens and method of producing L-amino acids therewith” (Degussa AG, priority 1998, dated 2005)
Like-named read-outs stand apart in the source and are kept apart here.

Experiments:
[1] = molecular target: rec-L-N-carbamoylase from A.a. (Paenarthrobacter aurescens, UniProt Q9F464); type: biochemical, Arthrobacter aurescens; details: pH 8.5, homogeneously purified enzyme
Method: (§1) The substrate specificity of the carbamoylase was investigated with homogeneously purified enzyme. The latter was obtained after cell maceration and ion exchange chromatography on Streamline-DEAE- and MonoQ media. A solution of the particular substrate was produced in a concentration of 1.8 mM (exception N-carbamoyl-L-methionine: 50 mM) in 0.1 M TRIS-HCl, pH 8.5 and used instead of the standard substrate in the standard activity test. Instead of the trichloroacetic acid (TCA) used in the standard test for stopping, in the case of the substrates N-formyl-D,L-tryptophane, N-carbamoyl-L-thienylalanine and N-acetyl-D,L-tryptophane heat denaturation was used to terminate the reaction (incubation for 10 min in a boiling water bath) and in the case of the substrate N-carbamoyl-D,L-phenylalanine, addition of 900 μl methanol to 100 μl assay solution was used. The concentration of the amino acid was subsequently determined either by HPLC or colorimetrically after reaction with ninhydrin.
(§2) 5 ml of a cell culture induced with rhamnose are centrifuged at 3000 rpm for 5 min in a Heraeus Megafuge, washed with 5 ml buffer (200 mM TRIS-HCl, pH 7.0), re-centrifuged, taken up in 1 ml buffer (200 mM TRIS-HCl, 0.1 mM MnCl2 pH 7.0) and macerated by ultrasound (Ultrasonics Sonicator, microtip, 2×30 sec, duty cycle 50%). Cell fragments are removed by centrifugation in an Eppendorf centrifuge at 13000 rpm, 10 min. The supernatant, designated as raw extract, is used for the enzyme measurement. 100 μl raw extract or cleaned-up enzyme is mixed with 800 μl 2 mM N-carbamoyl amino acid preheated to 37° C. in 100 mM TRIS-HCl, pH 8.5 and incubated 10 min at 37° C. The reaction is stopped by the addition of 400 μl trichloroacetic acid. The precipitated protein is separated by centrifugation in an Eppendorf centrifuge at 13000 rpm for 10 min. The supernatant is subsequently measured in an HPLC or calorimetrically (ninhydrin). The separation of the reaction mixture takes place in an HPLC with an RP-18 column, the mobile solvent is 0.3% (V/V) phosphoric acid, 80% methanol, flow rate 1.0 ml/min. The detection takes place by measuring the UV absorption at a wavelength of 280 nm.

[2] = substrate: NC(=O)NC(Cc1ccccc1)C(=O)O; assay: purified protein, by the assay type; type: biochemical, Arthrobacter aurescens; details: other: homogeneously purified enzyme, 0.1 M TRIS-HCl, pH 8.5, 37.0 °C
Method: as §1, §2

[3] = substrate: NC(=O)N[C@@H](Cc1c[nH]c2ccccc12)C(=O)O; assay: purified protein, by the assay type; type: biochemical, Arthrobacter aurescens; details: other: homogeneously purified enzyme, 0.1 M TRIS-HCl, pH 8.5, 37.0 °C
Method: as §1, §2

[4] = substrate: NC(=O)N[C@@H](Cc1ccc(O)cc1)C(=O)O; assay: purified protein, by the assay type; type: biochemical, Arthrobacter aurescens; details: other: homogeneously purified enzyme, 0.1 M TRIS-HCl, pH 8.5, 37.0 °C
Method: as §1, §2

[5] = substrate: NC(=O)N[C@@H](Cc1cccs1)C(=O)O; assay: purified protein, by the assay type; type: biochemical, Arthrobacter aurescens; details: other: homogeneously purified enzyme, 0.1 M TRIS-HCl, pH 8.5, 37.0 °C
Method: as §1, §2

[6] = substrate: O=CNC(Cc1c[nH]c2ccccc12)C(=O)O; assay: purified protein, by the assay type; type: biochemical, Arthrobacter aurescens; details: other: homogeneously purified enzyme, 0.1 M TRIS-HCl, pH 8.5, 37.0 °C
Method: as §1, §2

[7] = Temperature stability of the rec-L-N-carbamoylase (storage, then standard activity test); type: physicochemical, Arthrobacter aurescens
Method: FIG. 2: Standard activity assay of the isolated recombinant Arthrobacter aurescens N-L-carbamoylase enzyme isolated from E.coli. The N-L-carbamoylase was isolated after cell maceration and ion exchange chromatography on Streamline DEAE and MonoQ media. N-L-carbamoylase activity was determined by reacting with the substrate N-carbamoyl-L-tryptophane over 100 hours wherein the concentration of the amino acid tryptophan was determined in order to calculate N-L carbamoylase activity. The N-L-carbamoylase enzyme activity was measured and reached a relative activity level of around 100% between hours 40 and […] of incubation 37° C.
[…] The standard test for determination of activity was carried out at time intervals of 1-100 h.
as §2

[8] = N-L-carbamoylase activity of raw extract of rhamnose-induced E. coli JM109/pAW178-2; type: biochemical, Arthrobacter aurescens; details: 9 h after rhamnose induction, approximately maximum; N-carbamoyl-L-tryptophane as substrate
Method: 1 ml of an overnight culture of E. coli JM109/pAW178-2 (FIG. 1) in LBamp is added into 100 ml fresh LBamp medium in a one-liter Erlenmeyer flask and the latter incubated at 30° C. in a water bath under agitation (200 rpm). 1 ml of a 20% rhamnose solution is added to the culture at an optical density of the culture of 0.5 (measured at a wavelength of 600 nm in a photometer) (end concentration […]) and the culture incubated further. After a further 9 h incubation approximately the maximum of the N-L-carbamoylase activity is achieved, a specific activity of 1.8 units/mg raw extract, measured with N-carbamoyl-L-tryptophane as substrate. No activity was found in cultures which had not been induced with rhamnose.
5 ml of a cell culture induced with rhamnose are centrifuged at 3000 rpm for 5 min in a Heraeus Megafuge, washed with 5 ml buffer (200 mM TRIS-HCl, pH 7.0), re-centrifuged, taken up in 1 ml buffer (200 mM TRIS-HCl, 0.1 mM MnCl2 pH 7.0) and macerated by ultrasound (Ultrasonics Sonicator, microtip, 2×30 sec, duty cycle 50%). Cell fragments are removed by centrifugation in an Eppendorf centrifuge at 13000 rpm, 10 min. The supernatant, designated as raw extract, is used for the enzyme measurement. […] The supernatant is subsequently measured in an HPLC or calorimetrically (ninhydrin). […]

[9] = substrate 1.8 mM in 0.1 M TRIS-HCl, n.n. = can not be detected

Row | Molecule | Activity % [1, 9] | other results
1 | NC(=O)NC(CC(=O)O)C(=O)O (racemic) [N-carbamoyl-D,L-aspartate] | n.n. | 
2 | NC(=O)NC(Cc1ccccc1)C(=O)O (racemic) [N-carbamoyl-D,L-phenylalanine] | 97% | 
3 | NC(=O)N[C@@H](CCC(=O)O)C(=O)O [N-carbamoyl-L-glutamate] | n.n. | 
4 | CSCC[C@H](NC(N)=O)C(=O)O [N-carbamoyl-L-methionine] |  | Activity % ([1]; substrate 50 mM (exception) in 0.1 M TRIS-HCl): 17%
5 | NC(=O)N[C@H](C(=O)O)c1ccccc1 [N-carbamoyl-L-phenylglycine] | n.n. | 
6 | NC(=O)N[C@@H](Cc1ccc(O)cc1)C(=O)O [N-carbamoyl-L-tyrosine] | 126% | 
7 | O=CNC(Cc1c[nH]c2ccccc12)C(=O)O (racemic) [N-formyl-D-L-tryptophane] | 97% | 
8 | NC(=O)NCCC(=O)O [N-carbamoyl-β-alanine] | n.n. | 
9 | N=C(N)NCCC[C@H](NC(N)=O)C(=O)O [N-carbamoyl-L-arginine] | n.n. | 
10 | O=CN[C@@H](CC(=O)O)C(=O)O [N-formyl-L-aspartate] | n.n. | 
11 | CC(=O)NC(Cc1c[nH]c2ccccc12)C(=O)O (racemic) [N-acetyl-D,L-tryptophane] | n.n. | 
12 | NC(=O)N[C@@H](C(=O)O)c1ccccc1 [N-carbamoyl-D-phenylglycine] | n.n. | 
13 | NC(=O)N[C@H](Cc1ccccc1)C(=O)O [N-carbamoyl-D-phenylalanine] | n.n. | 
14 | NC(=O)N[C@@H](Cc1c[nH]c2ccccc12)C(=O)O [N-carbamoyl-L-tryptophane] | 100% | 
15 | NC(=O)N[C@H](Cc1c[nH]c2ccccc12)C(=O)O [N-carbamoyl-D-tryptophane] | n.n. | 
16 | NC(=O)N[C@@H](Cc1cccs1)C(=O)O [N-carbamoyl-L-thienylalanine] | 314% | 
17 | rec-L-N-carbamoylase from A.a. (Paenarthrobacter aurescens) (protein) MTLQKAQAERIEKEIRELSRFSAEGPGVTRLTYTPEHAAARETLIAAMKAAALSVREDALGNIIGRREGTDPELPAIAVGSHFDSVRNGGMFDGTAGVVCALEAARVMLENGYVNRHPFEFIAIVEEEGARFSSGMLGGRAIAGLVADRELDSLVDEDGVSVRQAATAFGLKPGELQAAARSAADLRAFIELHIEQGPILEQEQIEIGVVTSIVGVRALRVAVKGRSDHAGTTPMHLRQDALVPAALMVREVNRFVNEIADGTVATVGHLTVAPGGGNQVPGEVDFTLDLRSPHEESLRVLIDRISVMVGEVASQAGVAADVDEFFNLSPVQLAPTMVDAVREAASALQFTHRDISSGAGHDSMFIAQVTDVGMVFVPSRAGRSHVPEEWTDFDDLRKGTEVVLRVMKALDR |  | Km [2]: 0.7 MM; Km [3]: 0.12 MM; Km [4]: 0.3 MM; Km [5]: 2.3 MM; Km [6]: 8.5 MM
18 | rec-carbamoylase: recombinant L-N-carbamoylase from Arthrobacter aurescens (hyuC gene, SEQ ID NO:2) expressed in E. coli (protein, listed as Arthrobacter aurescens) MTLQKAQAARIEKEIRELSRFSAEGPGVTRLTYTPEHAAARETLIAAMKAAALSVREDALGNIIGRREGTDPELPAIAVGSHFDSVRNGGMFDGTAGVVCALEAARVMLENGYVNRHPFEFIAIVEEEGARFSSGMLGGRAIAGLVADRELDSLVDEDGVSVRQAATAFGLKPGELQAAARSAADLRAFIELHIEQGPILEQEQIEIGVVTSIVGVRALRVAVKGRSDHAGTTPMHLRQDALVPAALMVREVNRFVNEIADGTVATVGHLTVAPGGGNQVPGEVDFTLDLRSPHEESLRVLIDRISVMVGEVASQAGVAADVDEFFNLSPVQLAPTMVDAVREAASALQFTHRDISSGAGHDSMFIAQVTDVGMVFVPSRAGRSHVPEEWTDFDDLRKGTEVVLRVMKALDR |  | activity on storage at 37° C. ([7]; 37° C., 100 h, homogeneously purified recombinant enzyme): almost unchanged; duration of activity at 50° C. ([7]; 50° C.): hours; relative activity level ([7]; between hours 40 and 140 of incubation 37° C., substrate N-carbamoyl-L-tryptophane (FIG. 2)): around 100%; specific activity [8]: 1.8 units/mg raw extract
